Patent US10208081B2, “Bile acid derivatives as FXR/TGR5 agonists and methods of use thereof” (Enanta Pharmaceuticals, Inc., priority 2014, dated 2019)

Molecular target: human FXR (NR1H4) (Homo sapiens (Human), UniProt Q96RI1)
Experiment: Human FXR (NR1H4) Assay (Gal4 promoter driven luciferase reporter, Indigo Bioscience kit IB00601)
Format: cell-based
Settings: for Efficacy (%): efficacy normalized to CDCA set as 100%; for EC50: potency ranges
Description: Assays Human FXR (NR1H4) Assay
Determination of a ligand mediated Gal4 promoter driven transactivation quantify ligand binding mediated activation of FXR. FXR Reporter Assay kit purchased from Indigo Bioscience (Catalogue number: IB00601) to determine the potency and efficacy of compound developed by Enanta that can induce FXR activation. The principle application of this reporter assay system is to quantify functional activity of human FXR. The assay utilizes non-human mammalian cells, CHO (Chinese hamster ovary) cells engineered to express human NR1H4 protein (referred to as FXR). Reporter cells also incorporate the cDNA encoding beetle luciferase which catalyzes the substrates and yields photon emission. Luminescence intensity of the reaction is quantified using a plate-reading luminometer, Envision. Reporter Cells include the luciferase reporter gene functionally linked to an FXR responsive promoter. Thus, quantifying changes in luciferase expression in the treated reporter cells provides a sensitive surrogate measure of the changes in FXR activity. […] The assay is according to the manufacturer's instructions. In brief, the assay was performed in white, 96 well plates using final volume of 100 ul containing cells with different doses of compounds. Retrieve Reporter Cells from −80° C. storage. Perform a rapid thaw of the frozen cells by transferring a 10 ml volume of 37° C. cell recovery medium into the tube of frozen cells. Recap the tube of Reporter Cells and immediately place it in a 37° C. water bath for 5-10 minutes. Retrieve the tube of Reporter Cell Suspension from the water bath. Sanitize the outside surface of the tube with a 70% alcohol swab, and then transfer it into the cell culture hood. Dispense 90 μl of cell suspension into each well of the 96-well Assay Plate. Transfer the plate into 37° C. incubator, allowing the cells adherent to the bottom of the well. Dilute compounds in Dilution Plate (DP), and administrate to cells at Assay Plate (AP). DMSO content of the samples was kept at 0.2%. Cells were incubated for additional 22 hours before luciferase activities were measured. Thirty minutes before intending to quantify FXR activity, remove Detection Substrate and Detection Buffer from the refrigerator and place them in a low-light area so that they may equilibrate to room temperature. Remove the plate's lid and discard all media contents by ejecting it into an appropriate waste container. Gently tap the inverted plate onto a clean absorbent paper towel to remove residual droplets. Cells will remain tightly adhered to well bottoms. Add 100 μl of luciferase detection reagent to each well of the assay plate. Allow the assay plate to rest at room temperature for at least 5 minutes following the addition of LDR. Set the instrument (Envision) to perform a single 5 second “plate shake” prior to reading the first assay well. Read time may be 0.5 second (500 mSec) per well.

Sequence of human FXR (NR1H4) (Q96RI1 whole entry, the tested form may be a part): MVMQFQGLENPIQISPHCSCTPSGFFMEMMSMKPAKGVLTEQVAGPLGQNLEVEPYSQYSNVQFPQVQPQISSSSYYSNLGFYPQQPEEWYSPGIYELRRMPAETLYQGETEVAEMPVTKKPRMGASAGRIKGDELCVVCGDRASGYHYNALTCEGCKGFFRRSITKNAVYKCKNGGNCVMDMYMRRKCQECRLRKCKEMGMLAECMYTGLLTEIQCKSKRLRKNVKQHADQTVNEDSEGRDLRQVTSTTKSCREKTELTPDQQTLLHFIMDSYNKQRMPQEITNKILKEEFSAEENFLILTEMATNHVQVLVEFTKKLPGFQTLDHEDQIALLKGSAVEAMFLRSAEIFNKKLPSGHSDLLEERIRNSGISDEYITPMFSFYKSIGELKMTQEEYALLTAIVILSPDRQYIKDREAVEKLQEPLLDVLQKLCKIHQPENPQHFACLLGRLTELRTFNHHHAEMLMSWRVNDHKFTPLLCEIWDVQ

Row | SMILES | Efficacy (%) | EC50 [nM]
1 | CC[C@H]1[C@@H](O)[C@@H]2[C@H](CC[C@]3(C)[C@@H]([C@H](C)CCCNC(=O)NS(=O)(=O)c4ccc5ccccc5c4)CC[C@@H]23)[C@@]2(C)CC[C@@H](O)C[C@@H]12 [Example 19] | 323 | 100 to 1000
2 | CC[C@H]1[C@@H](O)[C@@H]2[C@H](CC[C@]3(C)[C@@H]([C@H](C)CCNC(=O)NS(=O)(=O)N4CCC(C)(C)CC4)CC[C@@H]23)[C@@]2(C)CC[C@@H](O)C[C@@H]12 [Example 65] | 498 | < 100
3 | CC[C@H]1[C@@H](O)[C@@H]2[C@H](CC[C@]3(C)[C@@H]([C@H](C)CCNC(=O)NS(=O)(=O)c4cccc(Cl)c4)CC[C@@H]23)[C@@]2(C)CC[C@@H](O)C[C@@H]12 [Example 24] | 421 | < 100
4 | CC[C@H]1[C@@H](O)[C@@H]2[C@H](CC[C@]3(C)[C@@H]([C@H](C)CCNC(=O)NS(=O)(=O)C4CC4)CC[C@@H]23)[C@@]2(C)CC[C@@H](O)C[C@@H]12 [Example 5] | 369 | 100 to 1000
5 | CC[C@H]1[C@@H](O)[C@@H]2[C@H](CC[C@]3(C)[C@@H]([C@H](C)CCNC(=O)NS(=O)(=O)c4cccc(N(C)C)c4)CC[C@@H]23)[C@@]2(C)CC[C@@H](O)C[C@@H]12 [Example 112] | 287 | < 100
6 | CC[C@H]1[C@@H](O)[C@@H]2[C@H](CC[C@]3(C)[C@@H]([C@H](C)CCCCNS(=O)(=O)c4ccccc4)CC[C@@H]23)[C@@]2(C)CC[C@@H](O)C[C@@H]12 [Example 137] | 105 | 1000 to 10000
7 | CC[C@H]1[C@@H](O)[C@@H]2[C@H](CC[C@]3(C)[C@@H]([C@H](C)CCNC(=O)NS(=O)(=O)c4ccc(C(C)(C)CO)cc4)CC[C@@H]23)[C@@]2(C)CC[C@@H](O)C[C@@H]12 [Example 69] | 490 | < 100
8 | CC[C@H]1[C@@H](O)[C@@H]2[C@H](CC[C@]3(C)[C@@H]([C@H](C)CCNC(=O)NS(=O)(=O)c4ccc(OC(F)(F)F)cc4)CC[C@@H]23)[C@@]2(C)CC[C@@H](O)C[C@@H]12 [Example 2] | 300 | < 100
9 | CC[C@H]1[C@@H](O)[C@@H]2[C@H](CC[C@]3(C)[C@@H]([C@H](C)CCNC(=O)NS(=O)(=O)c4ccc(C(C)(C)C)cc4)CC[C@@H]23)[C@@]2(C)CC[C@@H](O)C[C@@H]12 [Example 3] | 396 | < 100
10 | CC[C@H]1[C@@H](O)[C@@H]2[C@H](CC[C@]3(C)[C@@H]([C@H](C)CCNC(=O)NS(=O)(=O)N4CCCC4)CC[C@@H]23)[C@@]2(C)CC[C@@H](O)C[C@@H]12 [Example 48] | 420 | < 100
11 | CC[C@H]1[C@@H](O)[C@@H]2[C@H](CC[C@]3(C)[C@@H]([C@H](C)CCNC(=O)NS(=O)(=O)N4CCC5(CC4)COC5)CC[C@@H]23)[C@@]2(C)CC[C@@H](O)C[C@@H]12 [Example 74] | 242 | 100 to 1000
12 | CC[C@H]1[C@@H](O)[C@@H]2[C@H](CC[C@]3(C)[C@@H]([C@H](C)CCNC(=O)NS(=O)(=O)c4ccc5c(c4)CCCC5)CC[C@@H]23)[C@@]2(C)CC[C@@H](O)C[C@@H]12 [Example 57] | 297 | < 100
13 | CC[C@H]1[C@@H](O)[C@@H]2[C@H](CC[C@]3(C)[C@@H]([C@H](C)CNS(=O)(=O)c4cccc(N5CCCCC5)c4)CC[C@@H]23)[C@@]2(C)CC[C@@H](O)C[C@@H]12 [Example 142] | 7 | –
14 | CCCCS(=O)(=O)NC(=O)NCC[C@@H](C)[C@H]1CC[C@H]2[C@@H]3[C@H](O)[C@H](CC)[C@@H]4C[C@H](O)CC[C@]4(C)[C@H]3CC[C@]12C [Example 90] | 407 | < 100
15 | CC[C@H]1[C@@H](O)[C@@H]2[C@H](CC[C@]3(C)[C@@H]([C@H](C)CCNC(=O)NS(=O)(=O)c4ccc(Cl)cc4)CC[C@@H]23)[C@@]2(C)CC[C@@H](O)C[C@@H]12 [Example 25] | 357 | < 100
16 | CC[C@H]1[C@@H](O)[C@@H]2[C@H](CC[C@]3(C)[C@@H]([C@H](C)CCCNC(=O)NS(=O)(=O)c4ccc(C(C)(C)C)cc4)CC[C@@H]23)[C@@]2(C)CC[C@@H](O)C[C@@H]12 [Example 12] | 327 | < 100
17 | CC[C@H]1[C@@H](O)[C@@H]2[C@H](CC[C@]3(C)[C@@H]([C@H](C)CCNC(=O)NS(=O)(=O)N4CCN(C(=O)C(C)(C)C)CC4)CC[C@@H]23)[C@@]2(C)CC[C@@H](O)C[C@@H]12 [Example 85] | 324 | 100 to 1000
18 | CC[C@H]1[C@@H](O)[C@@H]2[C@H](CC[C@]3(C)[C@@H]([C@H](C)CCNS(=O)(=O)c4ccc(C(C)(C)C)s4)CC[C@@H]23)[C@@]2(C)CC[C@@H](O)C[C@@H]12 [Example 134] | 19 | –
19 | CC[C@H]1[C@@H](O)[C@@H]2[C@H](CC[C@]3(C)[C@@H]([C@H](C)CNC(=O)NS(=O)(=O)c4ccc(-c5ccccc5)s4)CC[C@@H]23)[C@@]2(C)CC[C@@H](O)C[C@@H]12 [Example 114] | 322 | < 100
20 | CC[C@H]1[C@@H](O)[C@@H]2[C@H](CC[C@]3(C)[C@@H]([C@H](C)CCNC(=O)NS(=O)(=O)c4ccc(N(C)C)cc4)CC[C@@H]23)[C@@]2(C)CC[C@@H](O)C[C@@H]12 [Example 119] | 363 | < 100
21 | CC[C@H]1[C@@H](O)[C@@H]2[C@H](CC[C@]3(C)[C@@H]([C@H](C)CCNC(=O)NS(=O)(=O)c4ccc5c(c4)OCCO5)CC[C@@H]23)[C@@]2(C)CC[C@@H](O)C[C@@H]12 [Example 58] | 307 | < 100
22 | CC[C@H]1[C@@H](O)[C@@H]2[C@H](CC[C@]3(C)[C@@H]([C@H](C)CCNC(=O)NS(=O)(=O)N4CCOCC4)CC[C@@H]23)[C@@]2(C)CC[C@@H](O)C[C@@H]12 [Example 37] | 254 | < 100
23 | CC[C@H]1[C@@H](O)[C@@H]2[C@H](CC[C@]3(C)[C@@H]([C@H](C)CCNC(=O)NS(=O)(=O)c4ccc5c(c4)CCN5C(C)=O)CC[C@@H]23)[C@@]2(C)CC[C@@H](O)C[C@@H]12 [Example 62] | 476 | 1000 to 10000
24 | CC[C@H]1[C@@H](O)[C@@H]2[C@H](CC[C@]3(C)[C@@H]([C@H](C)CNC(=O)NS(=O)(=O)c4ccc(C5CCCCC5)cc4)CC[C@@H]23)[C@@]2(C)CC[C@@H](O)C[C@@H]12 [Example 113] | 366 | < 100
25 | CC[C@H]1[C@@H](O)[C@@H]2[C@H](CC[C@]3(C)[C@@H]([C@H](C)CCNC(=O)NS(=O)(=O)C4CCC(C(C)(C)C)CC4)CC[C@@H]23)[C@@]2(C)CC[C@@H](O)C[C@@H]12 (some centres unmarked) [Example 88] | 378 | < 100
26 | CC[C@H]1[C@@H](O)[C@@H]2[C@H](CC[C@]3(C)[C@@H]([C@H](C)CNC(=O)NS(=O)(=O)c4ccc5c(c4)OCO5)CC[C@@H]23)[C@@]2(C)CC[C@@H](O)C[C@@H]12 [Example 117] | 305 | < 100
27 | CC[C@H]1[C@@H](O)[C@@H]2[C@H](CC[C@]3(C)[C@@H]([C@H](C)CCNC(=O)NS(=O)(=O)c4cccc(F)c4)CC[C@@H]23)[C@@]2(C)CC[C@@H](O)C[C@@H]12 [Example 51] | 319 | < 100
28 | CC[C@H]1[C@@H](O)[C@@H]2[C@H](CC[C@]3(C)[C@@H]([C@H](C)CCNC(=O)NS(=O)(=O)N4C[C@@H](C)O[C@H](C)C4)CC[C@@H]23)[C@@]2(C)CC[C@@H](O)C[C@@H]12 [Example 82] | 321 | < 100
29 | CC[C@H]1[C@@H](O)[C@@H]2[C@H](CC[C@]3(C)[C@@H]([C@H](C)CCNC(=O)NS(=O)(=O)c4c(F)c(F)c(F)c(F)c4F)CC[C@@H]23)[C@@]2(C)CC[C@@H](O)C[C@@H]12 [Example 92] | 325 | 1000 to 10000
